Measurements: the supplement of paper PMC12317010
Where a name gives a salt, the structure may show the parent alone.

Test: collision cross section in nitrogen (drift tube, single-field); higher = larger gas-phase ion size
[1] = ion type: [M+H], ion source: ESI, ion mode: Positive
[2] = ion type: [M+Na], ion source: ESI, ion mode: Positive
[3] = ion type: [M+H], ion source: APCI, ion mode: Positive
[4] = ion type: [M-H], ion source: ESI, ion mode: Negative
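Note: chemical standards at 10 µM analysed by drift tube IMS-QTOF MS in about 3.95 torr nitrogen, mean of duplicate injections differing ≤1%, mass error below 10 ppm.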

| Compound | collision cross section in nitrogen [1] | collision cross section in nitrogen [2] | also measured |
| --- | --- | --- | --- |
| COP(=S)(OC)Oc1c(Cl)cc(C)cc1Cl [Tolclofos-methyl] | 153.6 Å² | 169.1 Å² |  |
| Cc1cccc(N(C)C(=S)Oc2ccc3ccccc3c2)c1 [Tolnaftate] | 175.4 Å² | 185.4 Å² | collision cross section in nitrogen [3]: 175.5 Å² |
| Cc1ccc(N2C(=O)C=CC2=O)cc1N1C(=O)C=CC1=O [Toluene-2,4-dimaleimide] |  |  | collision cross section in nitrogen [3]: 163.3 Å² |
| Cc1ccc(N(SC(F)(Cl)Cl)S(=O)(=O)N(C)C)cc1 [Tolylfluanid] |  | 177.6 Å² |  |
| CCCc1c(OCCCCc2nnn[nH]2)ccc(C(C)=O)c1O [Tomelukast] |  | 177.6 Å² |  |
| CC1(C)O[C@@H]2[C@@H](CO[C@@]3(COS(N)(=O)=O)OC(C)(C)O[C@@H]23)O1 [Topiramate] |  | 171.7 Å² | collision cross section in nitrogen [4]: 174.7 Å² |
| Cc1c(C(=O)c2cnn(C)c2O)ccc(S(C)(=O)=O)c1C1=NOCC1 [Topramezone] |  | 181.1 Å² | collision cross section in nitrogen [4]: 182.9 Å² |
| CCON=C(CC)C1=C(O)CC(c2c(C)cc(C)cc2C)CC1=O (stereo not given) [Tralkoxydim] | 187 Å² | 196.2 Å² | collision cross section in nitrogen [3]: 187.3 Å²; collision cross section in nitrogen [4]: 188.9 Å² |
| N#Cc1c(-c2ccc(Cl)cc2)[nH]c(C(F)(F)F)c1Br [Tralopyril] |  |  | collision cross section in nitrogen [4]: 157.9 Å² |
| COc1cccc([C@@]2(O)CCCC[C@@H]2CN(C)C)c1 [Tramadol] | 161.1 Å² | 171.7 Å² | collision cross section in nitrogen [3]: 160.6 Å² |
| O=c1n(CCCN2CCN(c3cccc(Cl)c3)CC2)nc2ccccn12 [Trazodone hydrochloride] | 192 Å² | 195.7 Å² | collision cross section in nitrogen [3]: 192.5 Å² |
| NC(=O)Cn1c(=O)cc(CCN2CCN(c3nccc4sccc34)CC2)c2ccc(F)cc21 [Trelanserin] | 202.8 Å² | 207.9 Å² | collision cross section in nitrogen [3]: 200.1 Å²; collision cross section in nitrogen [4]: 203.8 Å² |
| CCCCCCCCOC(=O)c1ccc(C(=O)OCCCCCCCC)c(C(=O)OCCCCCCCC)c1 [Tri-n-octyl trimellitate] | 259 Å² | 263.7 Å² |  |
| Cc1ccccc1OP(=O)(Oc1ccccc1C)Oc1ccccc1C [Tri-o-cresyl phosphate] | 182.3 Å² | 192.7 Å² | collision cross section in nitrogen [3]: 182.7 Å² |
| CC(C)(C)C(=O)C(Oc1ccc(Cl)cc1)n1cncn1 (stereo not given) [Triadimefon] | 173.6 Å² |  | collision cross section in nitrogen [3]: 174.6 Å²; collision cross section in nitrogen [4]: 167.7 Å² |
| C=CCOC(=O)c1ccc(C(=O)OCC=C)c(C(=O)OCC=C)c1 [Triallyl trimellitate] |  | 189.3 Å² |  |
| Nc1nc(N)c2nc(-c3ccccc3)c(N)nc2n1 [Triamterene] | 158.3 Å² | 173 Å² | collision cross section in nitrogen [3]: 158.4 Å²; collision cross section in nitrogen (ion type: [M+], ion source: APCI, ion mode: Positive): 155 Å²; collision cross section in nitrogen [4]: 157.7 Å² |
| c1ccc(CN(Cc2ccccc2)Cc2ccccc2)cc1 [Tribenzylamine] | 169.2 Å² |  | collision cross section in nitrogen [3]: 169.1 Å² |
| O=C(Nc1ccc(Br)cc1)c1cc(Br)cc(Br)c1O [Tribromsalan] |  |  | collision cross section in nitrogen [4]: 173.7 Å² |
| CCCCSP(=O)(SCCCC)SCCCC [Tribufos] | 177.2 Å² | 194.4 Å² | collision cross section in nitrogen [3]: 177.5 Å² |
| CCCCOC(=O)CC(O)(CC(=O)OCCCC)C(=O)OCCCC [Tributyl citrate] |  | 202.7 Å² |  |

| Compound | collision cross section in nitrogen [1] | collision cross section in nitrogen [2] | also measured |
| --- | --- | --- | --- |
| CCCCCCCCCCCCCC[P+](CCCC)(CCCC)CCCC [Tributyltetradecylphosphonium chloride] |  |  | collision cross section in nitrogen (ion source: APCI, ion mode: Positive, ion type: [M]+ (permanent cation)): 224 Å²; collision cross section in nitrogen (ion source: ESI, ion mode: Positive, ion type: [M]+ (permanent cation)): 224.5 Å² |
| CCCCCCCC(=O)OCC(COC(=O)CCCCCCC)OC(=O)CCCCCCC [Tricaprylin] |  | 231.4 Å² |  |
| COP(=O)(OC)C(O)C(Cl)(Cl)Cl (stereo not given) [Trichlorfon] |  | 151.7 Å² |  |
| O=C(Nc1ccc(Cl)cc1)Nc1ccc(Cl)c(Cl)c1 [Triclocarban] |  |  | collision cross section in nitrogen [4]: 169 Å² |
| CCCCOCCOC(=O)COc1nc(Cl)c(Cl)cc1Cl [Triclopyr 2-butoxyethyl ester] |  | 176.3 Å² |  |
| C=CC(=O)OCC1CC2CC1C1CCC(COC(=O)C=C)C21 (stereo not given) [Tricyclodecanedimethanol diacrylate] |  | 176.9 Å² |  |
| CCOC(=O)CC(O)(CC(=O)OCC)C(=O)OCC [Triethyl citrate] |  | 169.1 Å² |  |
| CCOC(=O)CP(=O)(OCC)OCC [Triethyl phosphonoacetate] | 143.7 Å² | 155 Å² | collision cross section in nitrogen [3]: 143.6 Å² |
| CCCCC(CC)C(=O)OCCOCCOCCOC(=O)C(CC)CCCC (stereo not given) [Triethylene glycol bis(2-ethylhexanoate)] |  | 207.3 Å² |  |
| CC(=O)OCCOCCOCCOC(C)=O [Triethylene glycol diacetate] |  | 151.3 Å² |  |
| COCCOCCOCCOC [Triethylene glycol dimethyl ether] |  | 138.1 Å² |  |
| OCCOCCOCCO [Triethylene glycol] |  | 131.5 Å² |  |
| CO/N=C(/C(=O)OC)c1ccccc1CO/N=C(\C)c1cccc(C(F)(F)F)c1 [Trifloxystrobin] | 187.2 Å² | 193 Å² | collision cross section in nitrogen [3]: 187.4 Å² |
| COc1cc(OC)nc(NC(=O)NS(=O)(=O)c2ncccc2OCC(F)(F)F)n1 [Trifloxysulfuron-sodium] | 192 Å² | 194.5 Å² | collision cross section in nitrogen [4]: 190.2 Å² |
| CCCOC/C(=N\c1ccc(Cl)cc1C(F)(F)F)n1ccnc1 [Triflumizole] | 180 Å² |  | collision cross section in nitrogen [3]: 179.8 Å²; collision cross section in nitrogen [4]: 170.3 Å² |
| O=C(NC(=O)c1ccccc1Cl)Nc1ccc(OC(F)(F)F)cc1 [Triflumuron] |  | 186.6 Å² | collision cross section in nitrogen [4]: 179.1 Å² |
| O=S(=O)(O)C(F)(F)F [Trifluoromethanesulfonic acid] |  |  | collision cross section in nitrogen [4]: 110.8 Å² |
| CCCN(CCC)c1c([N+](=O)[O-])cc(C(F)(F)F)cc1[N+](=O)[O-] [Trifluralin] |  |  | collision cross section in nitrogen [4]: 169.2 Å² |
| CC(C)COP(=O)(OCC(C)C)OCC(C)C [Triisobutyl phosphate] |  | 183.6 Å² |  |
| CC(O)CN(CC(C)O)CC(C)O (stereo not given) [Triisopropanolamine] | 141.5 Å² | 143.9 Å² | collision cross section in nitrogen [3]: 141.3 Å² |
| C[C@]12CC[C@H]3[C@@H](CC[C@@]45O[C@@H]4C(O)=C(C#N)C[C@]35C)[C@@H]1CC[C@@H]2O [Trilostane] |  |  | collision cross section in nitrogen [4]: 186.2 Å² |

| Compound | collision cross section in nitrogen [1] | collision cross section in nitrogen [2] | also measured |
| --- | --- | --- | --- |
| O=C(O)c1ccc2c(c1)C(=O)OC2=O [Trimellitic anhydride] |  |  | collision cross section in nitrogen [4]: 146.5 Å² |
| CC(CCCCN)C(C)(C)N (stereo not given) [Trimethylhexane-1,6-diamine] | 140.4 Å² |  |  |
| C=CC(=O)OCC(CC)(COC(=O)C=C)COC(=O)C=C [Trimethylolpropane triacrylate] |  | 165.9 Å² |  |
| CCOC(=O)C1CC(=O)C(=C(O)C2CC2)C(=O)C1 (stereo not given) [Trinexapac-ethyl] |  | 167.5 Å² |  |
| C(=C(c1ccccc1)c1ccccc1)c1ccccc1 [Triphenylethylene] | 153.5 Å² |  |  |
| O=P(c1ccccc1)(c1ccccc1)c1ccccc1 [Triphenylphosphine oxide] | 162.9 Å² | 182.6 Å² | collision cross section in nitrogen [3]: 163 Å² |
| O[Si](c1ccccc1)(c1ccccc1)c1ccccc1 [Triphenylsilanol] |  |  | collision cross section in nitrogen [4]: 171 Å² |
| CCC(=O)OCC(COC(=O)CC)OC(=O)CC [Tripropionin] |  | 161.2 Å² |  |
| CCCOP(=O)(OCCC)OCCC [Tripropyl phosphate] |  | 168.5 Å² |  |
| C=CC(=O)OCC(C)OCC(C)OCC(C)OC(=O)C=C (stereo not given) [Tripropylene glycol diacrylate] |  | 169.9 Å² |  |
| COCC(C)OCC(C)OCC(C)O (stereo not given) [Tripropylene glycol monomethyl ether] |  | 148.8 Å² |  |
| CC(O)COC(C)COC(C)CO (stereo not given) [Tripropylene glycol] |  | 144.9 Å² |  |
| O=c1n(CC2CO2)c(=O)n(CC2CO2)c(=O)n1CC1CO1 (stereo not given) [Tris(2,3-epoxypropyl)isocyanurate] | 160.1 Å² | 163.2 Å² | collision cross section in nitrogen [3]: 158.6 Å² |
| O=P(OCCCl)(OCCCl)OCCCl [Tris(2-chloroethyl) phosphate] |  | 160.2 Å² |  |
| CC(CCl)OP(=O)(OC(C)CCl)OC(C)CCl (stereo not given) [Tris(2-chloroisopropyl)phosphate] |  | 171.9 Å² |  |
| CC(Cl)COP(=O)(OCC(C)Cl)OCC(C)Cl (stereo not given) [Tris(2-chloropropyl) phosphate] |  | 171.4 Å² |  |
| CCCCC(CC)COP(=O)(OCC(CC)CCCC)OCC(CC)CCCC (stereo not given) [Tris(2-ethylhexyl) phosphate] |  | 231.9 Å² |  |
| CCCCC(CC)COC(=O)c1ccc(C(=O)OCC(CC)CCCC)c(C(=O)OCC(CC)CCCC)c1 (stereo not given) [Tris(2-ethylhexyl) trimellitate] | 256.5 Å² | 264.6 Å² |  |
| O=c1n(CCO)c(=O)n(CCO)c(=O)n1CCO [Tris(2-hydroxyethyl) isocyanurate] |  | 159.3 Å² |  |
